The compounds below were run against GST tagged truncated human mutant G2019S LRRK2 (Homo sapiens (Human), UniProt Q5S007, G2019S) (assay: LRRK2 Km ATP LanthaScreen Assay). Settings: G2019S LRRK2, 134 μM ATP (Km ATP), mean values.
Format: biochemical
Summary of the method: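 Enzyme (GST-tagged, truncated) was preincubated with compound for 15 min at RT in 50 mM Tris pH 8.5, 10 mM MgCl2, 0.01% Brij-35, 1 mM EGTA, 2 mM DTT and 0.05 mM orthovanadate. Fluorescein-LRRKtide and 134 μM ATP (Km) were then added for 90 min. EDTA and Tb-anti-pERM antibody stopped the reaction; the TR-FRET 520/495 ratio gave 4-parameter IC50s, reported as mean pIC50.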

Sequence of GST tagged truncated human mutant G2019S LRRK2 (Q5S007 970-2527 G2019S): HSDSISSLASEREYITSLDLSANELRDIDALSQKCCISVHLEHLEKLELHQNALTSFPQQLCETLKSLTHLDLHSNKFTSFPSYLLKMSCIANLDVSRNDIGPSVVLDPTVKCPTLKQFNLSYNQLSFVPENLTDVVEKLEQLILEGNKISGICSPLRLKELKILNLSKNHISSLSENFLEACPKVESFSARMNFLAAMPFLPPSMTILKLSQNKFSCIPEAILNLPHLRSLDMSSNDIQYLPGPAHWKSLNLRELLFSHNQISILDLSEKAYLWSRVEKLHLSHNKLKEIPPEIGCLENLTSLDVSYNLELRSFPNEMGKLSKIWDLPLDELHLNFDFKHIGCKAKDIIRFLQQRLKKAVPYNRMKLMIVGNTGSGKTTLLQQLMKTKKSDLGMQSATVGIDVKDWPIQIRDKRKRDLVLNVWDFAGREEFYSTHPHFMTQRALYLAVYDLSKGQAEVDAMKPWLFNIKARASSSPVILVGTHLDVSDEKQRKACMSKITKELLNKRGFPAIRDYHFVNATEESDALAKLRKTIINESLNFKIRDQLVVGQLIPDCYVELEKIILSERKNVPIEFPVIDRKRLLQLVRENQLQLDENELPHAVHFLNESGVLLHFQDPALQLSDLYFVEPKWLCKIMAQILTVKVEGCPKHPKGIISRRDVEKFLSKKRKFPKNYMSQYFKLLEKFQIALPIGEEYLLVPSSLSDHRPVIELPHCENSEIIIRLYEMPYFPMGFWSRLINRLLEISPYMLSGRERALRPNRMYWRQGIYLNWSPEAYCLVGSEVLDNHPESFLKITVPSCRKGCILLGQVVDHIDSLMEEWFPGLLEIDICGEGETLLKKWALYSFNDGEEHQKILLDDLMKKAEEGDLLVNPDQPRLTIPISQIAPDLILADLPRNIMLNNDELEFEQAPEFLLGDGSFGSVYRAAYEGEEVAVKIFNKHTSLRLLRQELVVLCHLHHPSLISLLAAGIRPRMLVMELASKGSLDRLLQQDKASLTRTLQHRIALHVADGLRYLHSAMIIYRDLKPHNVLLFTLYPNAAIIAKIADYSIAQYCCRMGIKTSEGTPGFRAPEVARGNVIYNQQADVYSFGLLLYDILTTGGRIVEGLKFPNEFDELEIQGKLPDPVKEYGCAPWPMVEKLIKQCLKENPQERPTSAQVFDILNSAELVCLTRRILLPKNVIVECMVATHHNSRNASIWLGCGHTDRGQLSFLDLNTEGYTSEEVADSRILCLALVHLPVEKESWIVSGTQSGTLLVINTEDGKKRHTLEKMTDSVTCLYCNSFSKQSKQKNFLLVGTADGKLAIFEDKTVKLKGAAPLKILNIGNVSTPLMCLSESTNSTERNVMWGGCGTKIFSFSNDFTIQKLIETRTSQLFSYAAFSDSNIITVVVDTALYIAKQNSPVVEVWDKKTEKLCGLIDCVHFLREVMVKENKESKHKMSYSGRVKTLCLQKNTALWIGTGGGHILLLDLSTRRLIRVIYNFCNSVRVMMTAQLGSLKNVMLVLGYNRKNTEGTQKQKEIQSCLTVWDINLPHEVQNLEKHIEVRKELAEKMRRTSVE

Row | Structure (SMILES) | LRRK2 pIC50
1 | Cc1cc2cnc(Nc3cnn(C4(C)CC4)c3Cl)nc2cc1C1CCN(CCC#N)CC1 [Ex-5.2, 3-(4-(2-((5-chloro-1-(1-methylcyclopropyl)-1H-pyrazol-4-yl)amino)-6-methylquinazolin-7-yl)piperidin-1-yl)propanenitrile] | >9.20
2 | CN(C)CC12CC(n3cc(Nc4ncc5cc(Cl)c(C6CCN(C7(C)COC7)CC6)cc5n4)cn3)(C1)C2 [Ex-2.59, 6-chloro-N-(1-{3-[(dimethylamino)methyl]bicyclo [1.1.1]pentan-1-yl}-1H-pyrazol-4-yl)-7-[1-(3-methyloxetan-3-yl)piperidin-4-yl]quinazolin-2-amine] | >9.20
3 | CC1OCC1N1CC[C@@H](c2cc3nc(Nc4cnn(CC(C)(C)O)c4Cl)ncc3cc2Cl)[C@H](F)C1 (single isomer, unassigned) [Ex-4.70, (3S,4S)(2R,3R) or (3S,4S)(2S,3S) or (3R,4R)(2R,3R) or (3R,4R)(2S,3S) or (3R,4R)(2S,3R) or (3R,4R)(2R,3S) or (3S,4S)(2S,3R) or (3S,4S)(2R,3S) 1-[5-chloro-4-({6-chloro-7-[3-fluoro-1-(2-methyloxetan-3-yl)piperidin-4-yl]quinazolin-2-yl}amino)-1H-pyrazol-1-yl]-2-methylpropan-2-ol] | 7.92
4 | C[C@@]1(N2CCC(c3cc4nc(Nc5ccnn5C5CC5(F)F)ncc4cc3Cl)CC2)COC[C@@H]1O (single isomer, unassigned) [Ex-2.84, (S)(3S,4S) or (S)(3R,4R) or (R)(3S,4S) or (R)(3R,4R) 4-[4-(6-chloro-2-{[1-(2,2-difluorocyclopropyl)-1H-pyrazol-5-yl]amino}quinazolin-7-yl)piperidin-1-yl]-4-methyloxolan-3-ol] | 8.80
5 | Cc1c(Nc2ncc3cc(Cl)c(C4CCC(C)(O)CC4)cc3n2)cnn1C1CC1 (stereo not drawn) [Ex-2.63, cis- or trans-4-{6-chloro-2-[(1-cyclopropyl-5-methyl-1H-pyrazol-4-yl)amino]quinazolin-7-yl}-1-methylcyclohexan-1-ol] | 8.92
6 | N#CC1(Cn2ncc(Nc3ncc4cc(Cl)c(C5CCN(C6COC6)CC5)cc4n3)c2Cl)CC1 [Ex-8.24, 1-{[5-chloro-4-({6-chloro-7-[1-(oxetan-3-yl)piperidin-4-yl]quinazolin-2-yl}amino)-1H-pyrazol-1-yl]methyl}cyclopropane-1-carbonitrile] | 8.92
7 | Cc1c(Nc2ncc3cc(Cl)c([C@@H]4CCN(C5CCCC5O)C[C@H]4F)cc3n2)cnn1C1CC1 (single isomer, unassigned) [Ex-4.159, (1S,2R)(3S,4S) or (1R,2S)(3S,4S) or (1R,2R)(3S,4S) or (1S,2S)(3S,4S) or (1S,2R)(3R,4R) or (1R,2S)(3R,4R) or (1R,2R)(3R,4R) or (1S,2S)(3R,4R) 2-(4-{6-chloro-2-[(1-cyclopropyl-5-methyl-1H-pyrazol-4-yl)amino]quinazolin-7-yl}-3-fluoropiperidin-1-yl)cyclopentan-1-ol] | >9.20
8 | Cc1c(Nc2ncc3cc(Cl)c(C4CCN([C@]5(C)COC[C@@H]5O)CC4)cc3n2)cnn1C1CC1 (single isomer, unassigned) [Ex-1.16, (3S,4S) or (3R,4R) 4-(4-(6-chloro-2-((1-cyclopropyl-5-methyl-1H-pyrazol-4-yl)amino)quinazolin-7-yl)piperidin-1-yl)-4-methyltetrahydrofuran-3-ol] | >9.20
9 | F[C@H]1CN(C2COC2)C[C@@H]1c1cc2nc(Nc3cnn(C4CC4)c3Cl)ncc2cc1Cl (single isomer, unassigned) [Ex-4.41, (3S,4R) or (3R,4S) 6-chloro-N-(5-chloro-1-cyclopropyl-1H-pyrazol-4-yl)-7-[4-fluoro-1-(oxetan-3-yl)pyrrolidin-3-yl]quinazolin-2-amine] | 7.31
10 | CC1(N2CCC(c3cc4nc(Nc5cnn(C6CC6)c5Cl)ncc4cc3Cl)CC2)COC1 [Ex-8.10, 6-chloro-N-(5-chloro-1-cyclopropyl-1H-pyrazol-4-yl)-7-[1-(3-methyloxetan-3-yl)piperidin-4-yl]quinazolin-2-amine] | 9.08
11 | O=S1(=O)CC(N2CC[C@@H](c3cc4nc(Nc5cnn(C6CC6(F)F)c5Cl)ncc4cc3Cl)[C@H](F)C2)C1 (single isomer, unassigned) [Ex-4.124, (S)(3S,4S) or (S)(3R,4R) or (R)(3S,4S) or (R)(3R,4R) 3-[4-(6-chloro-2-{[5-chloro-1-(2,2-difluorocyclopropyl)-1H-pyrazol-4-yl]amino}quinazolin-7-yl)-3-fluoropiperidin-1-yl]thietane 1,1-dioxide] | 8.91
12 | Cc1c(Nc2ncc3cc(Cl)c([C@@H]4CCN([C@H]5COC[C@H]5O)C[C@H]4F)cc3n2)cnn1C12CC(C1)C2 (single isomer, unassigned) [Ex-4.162, (3S,4S)(3S,4S) or (3S,4S)(3R,4R) or (3R,4R)(3S,4S) or (3R,4R)(3R,4R) 4-[4-(2-{[1-(bicyclo[1.1.1]pentan-1-yl)-5-methyl-1H-pyrazol-4-yl]amino}-6-chloroquinazolin-7-yl)-3-fluoropiperidin-1-yl]oxolan-3-ol] | >9.20
13 | Cc1cc2cnc(Nc3cnn(C4CC4)c3Cl)nc2cc1[C@@H]1CCN([C@]2(C)COC[C@@H]2O)C[C@H]1F (single isomer, unassigned) [Ex-4.149, (3S,4S)(3S,4S) or (3S,4S)(3R,4R) or (3R,4R)(3S,4S) or (3R,4R)(3R,4R) 4-(4-{2-[(5-chloro-1-cyclopropyl-1H-pyrazol-4-yl)amino]-6-methylquinazolin-7-yl}-3-fluoropiperidin-1-yl)-4-methyloxolan-3-ol] | >9.20
14 | CC1(n2ncc(Nc3ncc4cc(Cl)c(C5CCN(C6CS(=O)(=O)C6)CC5)cc4n3)c2Cl)CC1 [Ex-8.12, 3-(4-(6-chloro-2-((5-chloro-1-(1-methylcyclopropyl)-1H-pyrazol-4-yl)amino)quinazolin-7-yl)piperidin-1-yl)thietane 1,1-dioxide] | 8.92
15 | Cn1nc(C(F)(F)F)cc1Nc1ncc2cc(Cl)c(C3CCN([C@]4(C)COC[C@@H]4O)CC3)cc2n1 (single isomer, unassigned) [Ex-2.89, (3S,4S) or (3R,4R) 4-[4-(6-chloro-2-{[1-methyl-3-(trifluoromethyl)-1H-pyrazol-5-yl]amino}quinazolin-7-yl)piperidin-1-yl]-4-methyloxolan-3-ol] | 7.39
16 | Cc1c(Nc2ncc3cc(Cl)c(C4CCN(C5CCC(CC#N)C5)CC4)cc3n2)cnn1C1CC1 (single isomer, unassigned) [Ex-4.168, (1R,3R) or (1S,3R) or (1R,3S) or (1S,3S) [3-(4-{6-chloro-2-[(1-cyclopropyl-5-methyl-1H-pyrazol-4-yl)amino]quinazolin-7-yl}piperidin-1-yl)cyclopentyl]acetonitrile] | 8.88
17 | C[C@@]1(N2CCC(c3cc4nc(Nc5ccnn5C5CC5(F)F)ncc4cc3Cl)CC2)COC[C@@H]1O (single isomer, unassigned) [Ex-2.87, (S)(3S,4S) or (S)(3R,4R) or (R)(3S,4S) or (R)(3R,4R) 4-[4-(6-chloro-2-{[1-(2,2-difluorocyclopropyl)-1H-pyrazol-5-yl]amino}quinazolin-7-yl)piperidin-1-yl]-4-methyloxolan-3-ol] | 8.04
18 | Cc1c(Nc2ncc3cc(Cl)c(C4CCN(C5CCC(CC#N)C5)CC4)cc3n2)cnn1C1CC1 (single isomer, unassigned) [Ex-4.169, (1R,3R) or (1S,3R) or (1R,3S) or (1S,3S) [3-(4-{6-chloro-2-[(1-cyclopropyl-5-methyl-1H-pyrazol-4-yl)amino]quinazolin-7-yl}piperidin-1-yl)cyclopentyl]acetonitrile] | 8.25

Same assay, conditions: G2019S LRRK2, 134 μM ATP (Km ATP), mean values; read-out: LRRK2 pIC50 (converted)

Row | Structure (SMILES) | IC50 [nM]
19 | CC1(C)CC(N2CCC(c3cc4nc(Nc5cnn(C6CC6)c5Cl)ncc4cc3Cl)CC2)CO1 (single isomer, unassigned) [Ex-4.116, (R) or (S) 6-chloro-N-(5-chloro-1-cyclopropyl-1H-pyrazol-4-yl)-7-(1-(5,5-dimethyltetrahydrofuran-3-yl)piperidin-4-yl)quinazolin-2-amine] | 4.47
20 | Cc1c(Nc2ncc3cc(Cl)c(C4CCN(CC(O)CN5CCOC5=O)CC4)cc3n2)cnn1C1CC1 (single isomer, unassigned) [Ex-4.221, (S) or (R) 3-[3-(4-{6-chloro-2-[(1-cyclopropyl-5-methyl-1H-pyrazol-4-yl)amino]quinazolin-7-yl}piperidin-1-yl)-2-hydroxypropyl]-1,3-oxazolidin-2-one] | < 0.631
21 | Cc1c(Nc2ncc3cc(Cl)c(C4CCN(CC(O)c5ccc(Cl)cc5)CC4)cc3n2)cnn1C1CC1 (single isomer, unassigned) [Ex-4.225, (S) or (R) 2-(4-{6-chloro-2-[(1-cyclopropyl-5-methyl-1H-pyrazol-4-yl)amino]quinazolin-7-yl}piperidin-1-yl)-1-(4-chlorophenyl)ethan-1-ol] | 21.4
22 | Cc1c(Nc2ncc3cc(Cl)c(C4CCN(CC(O)C(F)(F)F)CC4)cc3n2)cnn1C1CC1 (single isomer, unassigned) [Ex-4.12, (R) or (S) 3-(4-(6-chloro-2-((1-cyclopropyl-5-methyl-1H-pyrazol-4-yl)amino)quinazolin-7-yl)piperidin-1-yl)-1,1,1-trifluoropropan-2-ol] | < 0.631
23 | Cc1cc2cnc(Nc3cnn(C4CC4(F)F)c3Cl)nc2cc1C1CCN([C@@H]2COC[C@@H]2O)CC1 (stereo in doubt) [Ex-2.34, 4-[4-(2-{[5-chloro-1-(2,2-difluorocyclopropyl)-1H-pyrazol-4-yl]amino}-6-methylquinazolin-7-yl)piperidin-1-yl]oxolan-3-ol] | < 0.631

Source: patent US12540131B2 (Merck Sharp & Dohme LLC, priority 2019, dated 2026)
